According to patent US20030158255A1, “Use of bismuth subgallate in prevention and/or reduction of skin deterioration” (priority 2002, published 2003):

Test system: keratinocyte cells
Test: Proliferation of keratinocyte (cell count)
Assay type: cell-based
Details: for effect on proliferation of keratinocyte: cell count after 2-12 days of cultivation, FIG. 1
Description: The keratinocyte cells were respectively cultivated with the following groups of agents: (a) 0.7 μg/1 ml, 7 μg/ml, 70 μg/ml and 700 μg/ml of bismuth subgallate; (b) 0.1 μg/ml, 1 μg/ml, 10 μg/ml and […]; and (c) 0.7 μg/ml bismuth subgallate in combination with 0.1 μg/ml borneol, 7 μg/ml bismuth subgallate in combination with 1 μg/ml borneol, 70 μg/ml bismuth subgallate in combination with 10 μg/ml borneol and 700 μg/ml bismuth subgallate in combination with 100 μg/ml borneol. After the cells were cultivated after 2, 4, 6, 8, 10 and 12 days respectively, their count was noted to evaluate the proliferation of them.

CC1(C)C2CCC1(C)C(O)C2 (stereo not drawn) [borneol]
effect on proliferation of keratinocyte: no significant effect

bismuth subgallate
keratinocyte cell number relative to control (70 μg/ml bismuth subgallate, twelfth day): up to two times of that of control | effect on proliferation of keratinocyte: significant increase in the proliferation of keratinocyte
